Reference: patent publication US5688769A, “Treatment method” (Uclaf; Roussel, priority 1979, dated 1997)

Tests used:
[1] = test system: testicular steroidogensis; assay: Inhibitory activity against testicular steroidogenesis in men in good health, single intranasal dose; type: in vivo; details: human, single intranasal dose 500 μg
Description: The said product was administered intranasally at a dose of 500 μg in a few drops of distilled water at 8 A.M. on the third day of the test. For 2 days prior to the treatment and for 6 days after the treatment, samples of blood were taken daily at 8 A.M., 3 P.M. and 10 P.M. On the day of administration of the LH-RH agonist, blood samples were taken at 11 A.M. and 6 P.M.
The seric concentrations of LH and FSH were measured by radioimmuno-logic dosages with double antibodies and the antibodies for measuring LH and FSH were furnished by the National Pituitary Agency of N.I.H. in Bethesda, Md. The seric concentrations of steroids was measured by radioimmuno-logic dosages in which one ml of serum was extracted with ether and the steroids were separated on a LH-20 column before measuring with radioimmuno-logic dosages. The radioimmuno-logic dosage results were determined by a program derived from model II of Rodbard et al [Second Karolinska Symposium on Research Methods in Reproductive Endocrinology, Diezfalusky Editor, Copenhague (1970), p. 79-103]. The statistical significance was determined by the "multiple level test" of Duncan-Kramer [Kramer, Biometrics, Vol 12 (1956), p. 307]. The results are shown in the FIGS. 1A to 1H filed herewith.

[2] = test system: testicular steriodogenosis; assay: Inhibitory activity on testicular steroidogenesis in a patient with prostate cancer; type: in vivo, human; details: intranasal 500 μg twice a day
Excerpt: The results are reported in the graphs of sheet 2 of the Figures.

[3] = test system: ovarian steroidogenosis; assay: Inhibitory activity on ovarian steroidogenesis in women; type: in vivo; details: for reduction of seric levels of progesterone as compared to the controls: typical subject (FIGS. 3A-3D)
Description: The inhibitory activity of D Ser (Tbu)^6 or Gly^10 LH-RH ethylamide on ovarian steroidogenosis in women was determined on 6 women aged 26 to 35 years with normal and regular menstrual cycles and without prior endocrinal or gynecological problems. […] […] Daily blood samples were taken between 4 and 6 P.M. to measure seric levels of LH, FSH, progesterone and estradiol which were determined by radioimmuno-logic tests with double antibodies. The antibodies to measure LH and FSH were furnished by the National Pituitory Agency of N.I.H. of Bethesda, Md.
Estradiol and progesterone were measured with highly specific antibodies developed against 7-(O-carboxymethyl)-oxime of estradiol and 12-(O-carboxymethyl)-oxime of progesterone, respectively [3H] 17β-estradiol and ^125 I-progesterone-12-[0-carboxymethyl)-oxime]used as tracers. The serum was extracted with benzene and the steroids were separated with a LH 20 column before the determination. The radioimmunological results were exploited by the program derived from model II of Rodbard and Lewald as in Example 1 and the statistical significance was measured by the multiple level test of Ducan-Kramer of Example 1. The results are shown in the graphs of sheets 1 to 16 of the Figures.

SMILES: CCNC(=O)[C@@H]1CCCN1C(=O)[C@H](CCCNC(=N)N)NC(=O)[C@H](CC(C)C)NC(=O)[C@@H](COC(C)(C)C)NC(=O)[C@H](Cc1ccc(O)cc1)NC(=O)[C@H](CO)NC(=O)[C@H](Cc1c[nH]c2ccccc12)NC(=O)[C@H](Cc1c[nH]cn1)NC(=O)[C@@H]1CCC(=O)N1 [D Ser (Tbu)^6 of Gly^10 LH-RH ethylamide]
- duration of the lessening of cyclicity and drop of seric levels of testicular steroids [1]: 3 days
- androgenic steroids, plasmatic level [2]: diminution
- level of testosterone ([2]; two weeks of treatment): stabilized at a very low level
- level of seric progesterone, course ([3]; 2 cycles of treatment (FIGS. 4A-4F)): accelerated diminution
- level of progesterone, % of control values (pretreatment cycles = 100%) ([3]; 12 cycles of post-treatment): 99%
- level of progesterone, % of control values (pretreatment cycles = 100%) ([3]; 12 cycles of treatment): 46%
- level of progesterone reduced as compared to the controls ([3]; all 12 treatment cycles (FIGS. 5A-5L), scale 13 to 127%): 46%
- reduction of seric levels of progesterone as compared to the controls ([3]; first of the 2 cycles of treatment, intranasal 500 μg at 8 A.M. and 5 P.M. of one day): 13%
- reduction of seric levels of progesterone as compared to the controls ([3]; second of the 2 cycles of treatment): 34%
